Measured values as given in PMC5854716, “Synthesis, molecular docking, ctDNA interaction, DFT calculation and evaluation of antiproliferative and anti-Toxoplasma gondii activities of 2,4-diaminotriazine-thiazole derivatives” (Medicinal Chemistry Research, 2018).
Values after ≈ are worked out from the molar mass of the structure shown.

How the values were obtained:
mouse L929 fibroblast = assay: Cell viability assay (MTT), L929; format: cell-based; conditions: concentration for 30% proliferation inhibition, 24 h
Description: (§1) The epithelial cell line VERO (ATCC-Catalog No. CCL-81^TM), derived from the kidney of the African green monkey, Cercopithecus aethiops and fibroblast cell line L-929 (ATCC-Catalog No. CCL-1^TM), derived from Mus musculus (http://www.atcc.org) were grown in Iscoves’s Modified Dulbecco’s Medium (IMDM) supplemented with 10% (v/v) fetal bovine serum (FBS), plus 2 mM L-glutamine, 100 U/ml penicillin, 100.00 µg/ml streptomycin, 5 × 10^−5 M 2-mercaptoethanol and maintained at 37 °C in a 10% CO2 atmosphere. Subcultures were performed via enzymatic cell dissociation in 0.25% trypsin. After dissociation, the cells were placed in culture medium at 4 °C with 10% FBS to inhibit the action of trypsin. The isolated cells were centrifuged for 10 min at 1000×g at 4 °C, and the cells were grown in new bottles. This procedure was repeated when cells reached a confluence of ~90%. All commercial reactants and solvents were purchased from either Sigma-Aldrich Laborchemikalien GmbH (Dzitko et al. [2014]).
(§2) Suspensions of the compounds 4a–l were freshly prepared (5 mg/ml DMSO) before the cells were exposed, and diluted to appropriate concentrations; 0.9, 1.8, 3.9, 7.8, 15.6, 31.2, 62.5, and 125.00 μg/ml with the culture medium. Cells treated with 2.5% DMSO-solvent served as a control in each experiment.
The effects of tested compounds on the viability of mouse fibroblasts L929 and […] VERO cells were evaluated using the MTT assay. The MTT assay was used according to international standards: ISO 10993-5:2009 (Tests for in vitro cytotoxicity; http://www.iso.org/iso/catalogue_detail.htm? csnumber = 36406). L929 and VERO cells were plated into 96-well plates at a density of 1.0 × 10^4/100 μl/well in culture medium and allowed to attach for 24 h before treatment. Afterwards, culture medium in the plates was replaced by 100 μl compounds suspension at concentration of 0–125 μg/ml and the cells were exposed for 24 h. Then 1 mg/ml MTT (50 μl/well) was added to each well and incubated at 37 °C, 10 % CO2 for 2 h. Mitochondrial dehydrogenases of viable cells reduce the yellowish water-soluble MTT to water-insoluble formazan crystals, which were solubilized with dimethyl sulfoxide (DMSO). The cell culture medium was aspirated cautiously, after which 150 μl DMSO was added to each well and mixed thoroughly. Optical density (OD) was read on the ELISA reader (Multiskan EX, Labsystems; http://www.mtxlsi.com/multiskan_EX.htm) at 550 nm. The results were expressed as percentage viability compared with the treated 2.5% DMSO controls. All experiments were performed in triplicate.

[1] = system: Toxoplasma gondii BK strain; assay: T. gondii tachyzoite intracellular proliferation in VERO host cells ([3H]uracil incorporation); format: cell-based; conditions: Toxoplasma gondii, VERO host cells; for IC50: GraphPad Prism curves, read-out: IC50 (50% inhibition of T. gondii proliferation in vitro)
Description: as §1, §2
Stock solutions of the Sulfadiazine (100 mg/ml 1 N NaOH; Catalog No. S8626) was freshly prepared before each experiment, and diluted to appropriate concentrations: 5.00, 25.00, 50.00, 125.00, 250.00, 500.00, 1250.00, and 2500.00 μg/ml, respectively in IMDM complete medium. All commercial reactants and solvents were purchased from either Sigma-Aldrich Laborchemikalien GmbH.
Tachyzoites of T. gondii, BK strain, were maintained in female C57BL/6 (H-2^b) and BALB/c (H-2^d) mice (with genetically determined high and low susceptibility, respectively to Toxoplasma infection) via serial intraperitoneal inoculation of 10^5–10^6 parasites per mouse in phosphate-buffered saline (PBS). After 48 to 96 h, parasites were harvested via peritoneal lavage using PBS, pH 7.2, and centrifuged at 200×g for 5 min to remove blood cells and cell debris. The supernatant containing tachyzoites was collected and centrifuged again at 2000×g for 15 min. The final pellet was resuspended in IMDM, quantified in a Burker’s chamber, and used in experimental assays. Inbred mice were kept under standard laboratory conventional conditions. All experimental procedures were conducted according to guidelines of the 9. Local Ethics Commission for Experiments on Animals in Lodz.
VERO, (2 × 10^4 cells/100 µl/well) were grown in complete medium (IMDM) on 96-well plates. After 24 h incubation, a medium was removed and then T. gondii […] tachyzoites, suspended in culture medium supplemented with 0.9–125.00 μg/ml diaminotriazines 4a–l and as a control-sulfadiazine (5.0–2500.0 μg/ml), were added (2 × 10^5 tachyzoites/200 µl/well) to the cell monolayers. After subsequent 48 h incubation 1 µCi/well of [^3H] uracil (Moravek Biochemicals Inc., Brea, CA, USA) was applied to each microculture for further 18–20 h. The amount of the isotope incorporated into the parasite nucleic acid pool, corresponding to the parasite growth, was measured by liquid scintillation counting with 1450 Microbeta Plus Liquid Scintillation Counter (Wallac Oy, Turku, Finland). The cpms of host cells alone (below 250/microculture) were subtracted from cpms of T. gondii infected microcultures (Dzitko et al. [2014]).

Structure (SMILES) | CC30 L929 (mouse L929 fibroblast) [µg/mL] | activity at 0.9 µg/mL [1] [%] | activity at 1.8 µg/mL [1] [%] | activity at 3.9 µg/mL [1] [%] | activity at 7.8 µg/mL [1] [%] | activity at 15.6 µg/mL [1] [%] | activity at 31.2 µg/mL [1] [%] | activity at 62.5 µg/mL [1] [%] | activity at 125 µg/mL [1] [%] | IC50 [1] [µg/mL]
C/C(=N\Nc1nc(-c2ccc(F)cc2)cs1)c1ccc(Nc2nc(N)nc(N)n2)cc1 [Compound 4a, (E)-N^2-(4-(1-(2-(4-(4-fluorophenyl)-1,3-thiazol-2-yl)hydrazinylidene)ethyl)phenyl)-1,3,5-triazine-2,4,6-triamine] | >125.0 | 102 | 101 | 101 | 108 | 99.1 | 77.6 | 34.9 | 17.6 | 51.6 (≈ 119 µM)
C/C(=N\Nc1nc(-c2ccc(Cl)cc2)cs1)c1ccc(Nc2nc(N)nc(N)n2)cc1 [Compound 4b, (E)-N^2-(4-(1-(2-(4-(4-chlorophenyl)-1,3-thiazol-2-yl)hydrazinylidene)ethyl)phenyl)-1,3,5-triazine-2,4,6-triamine] | >125.0 | 100 | 106 | 101 | 98.2 | 74.6 | 52.2 | 26.1 | 14.7 | 33 (≈ 73.1 µM)
C/C(=N\Nc1nc(-c2ccc(C)cc2)cs1)c1ccc(Nc2nc(N)nc(N)n2)cc1 [Compound 4c, (E)-N^2-(4-(1-(2-(4-(4-tolyl)-1,3-thiazol-2-yl)hydrazinylidene)ethyl)phenyl)-1,3,5-triazine-2,4,6-triamine] | >125.0 | 102 | 102 | 110 | 100 | 86.2 | 58.6 | 40.1 | 30.9 | 51.4 (≈ 119 µM)
C/C(=N\Nc1nc(-c2ccc(Br)cc2)cs1)c1ccc(Nc2nc(N)nc(N)n2)cc1 [Compound 4d, (E)-N^2-(4-(1-(2-(4-(4-bromophenyl)-1,3-thiazol-2-yl)hydrazinylidene)ethyl)phenyl)-1,3,5-triazine-2,4,6-triamine] | >125.0 | 102 | 104 | 102 | 106 | 75.2 | 62.8 | 29.3 | 15.1 | 37.8 (≈ 76.2 µM)
